Our source for the mutagenic call values is PubChem BioAssay AID1259407 (Chemical Carcinogenesis Research Information System (CCRIS), 2018).

SMILES strings stand for the structures. The source made the active and inactive calls. The rule behind the calls is not given here.

The subject of the data set is CCRIS mutagenicity, Ames/micronucleus/aberration tests. As to the kind of experiment: CCRIS mutagenicity studies.
[1] abbreviates: Test System: AMES SALMONELLA TYPHIMURIUM, Strain/Indicator: TA98, Metabolic Activation: NONE, Method: STANDARD PLATE.
Setting [2] is: Test System: AMES SALMONELLA TYPHIMURIUM, Strain/Indicator: TA100, Metabolic Activation: NONE, Method: STANDARD PLATE.
The mark [3] stands for this setting: Test System: AMES SALMONELLA TYPHIMURIUM, Strain/Indicator: TA98, Metabolic Activation: S-9, Method: STANDARD PLATE.

Take `CCN(CC)CCCC(C)Nc1c2ccc(Cl)cc2nc2ccc(OC)cc12` (stereo not drawn): the mutagenic call reads like this: (Test System: AMES SALMONELLA TYPHIMURIUM, Strain/Indicator: TA97, Metabolic Activation: HAMSTER, LIVER, S-9, AROCLOR 1254 (10%), Method: PREINCUBATION) “active; positive”; (Test System: AMES SALMONELLA TYPHIMURIUM, Strain/Indicator: TA97, Metabolic Activation: NONE, Method: PREINCUBATION) “active; positive”; (Test System: AMES SALMONELLA TYPHIMURIUM, Strain/Indicator: TA97, Metabolic Activation: RAT, LIVER, S-9, AROCLOR 1254 (10%), Method: PREINCUBATION) “active; positive”; (Test System: AMES SALMONELLA TYPHIMURIUM, Strain/Indicator: TA98, Metabolic Activation: HAMSTER, LIVER, S-9, AROCLOR 1254 (10%), Method: PREINCUBATION) “active; positive”; (Test System: AMES SALMONELLA TYPHIMURIUM, Strain/Indicator: TA98, Metabolic Activation: NONE, Method: PREINCUBATION) “active; positive”; under setting [1], “inactive; negative”. For the same molecule, the mutagenic call reads like this: (Test System: AMES SALMONELLA TYPHIMURIUM, Strain/Indicator: TA98, Metabolic Activation: RAT LIVER S-9, AROCLOR 1254 (10%), Method: STANDARD PLATE) “active; positive”; (Test System: AMES SALMONELLA TYPHIMURIUM, Strain/Indicator: TA98, Metabolic Activation: RAT LIVER S-9, Method: STANDARD PLATE) “active; positive”; (Test System: AMES SALMONELLA TYPHIMURIUM, Strain/Indicator: TA98, Metabolic Activation: RAT, LIVER, S-9, AROCLOR 1254 (10%), Method: PREINCUBATION) “active; positive”; (Test System: AMES SALMONELLA TYPHIMURIUM, Strain/Indicator: TA100, Metabolic Activation: HAMSTER, LIVER, S-9, AROCLOR 1254 (10%), Method: PREINCUBATION) “inactive; negative”; (Test System: AMES SALMONELLA TYPHIMURIUM, Strain/Indicator: TA100, Metabolic Activation: NONE, Method: PREINCUBATION) “inactive; negative”; under setting [2], “inactive; negative”. For the same molecule, the mutagenic call by setting is: (Test System: AMES SALMONELLA TYPHIMURIUM, Strain/Indicator: TA100, Metabolic Activation: RAT LIVER S-9, AROCLOR 1254 (10%), Method: STANDARD PLATE) “inactive; negative”; (Test System: AMES SALMONELLA TYPHIMURIUM, Strain/Indicator: TA100, Metabolic Activation: RAT LIVER S-9, Method: STANDARD PLATE) “inactive; negative”; (Test System: AMES SALMONELLA TYPHIMURIUM, Strain/Indicator: TA100, Metabolic Activation: RAT, LIVER, S-9, AROCLOR 1254 (10%), Method: PREINCUBATION) “inactive; negative”; (Test System: AMES SALMONELLA TYPHIMURIUM, Strain/Indicator: TA1535, Metabolic Activation: HAMSTER, LIVER, S-9, AROCLOR 1254 (10%), Method: PREINCUBATION) “inactive; negative”; (Test System: AMES SALMONELLA TYPHIMURIUM, Strain/Indicator: TA1535, Metabolic Activation: NONE, Method: PREINCUBATION) “inactive; negative”; (Test System: AMES SALMONELLA TYPHIMURIUM, Strain/Indicator: TA1535, Metabolic Activation: NONE, Method: STANDARD PLATE) “inactive; negative”. Moreover, the mutagenic call is “inactive; negative” (Test System: AMES SALMONELLA TYPHIMURIUM, Strain/Indicator: TA1535, Metabolic Activation: RAT LIVER S-9, AROCLOR 1254 (10%), Method: STANDARD PLATE); “inactive; negative” (Test System: AMES SALMONELLA TYPHIMURIUM, Strain/Indicator: TA1535, Metabolic Activation: RAT, LIVER, S-9, AROCLOR 1254 (10%), Method: PREINCUBATION); “active; positive” (Test System: AMES SALMONELLA TYPHIMURIUM, Strain/Indicator: TA1537, Metabolic Activation: NONE, Method: STANDARD PLATE); “active; positive” (Test System: AMES SALMONELLA TYPHIMURIUM, Strain/Indicator: TA1537, Metabolic Activation: RAT LIVER S-9, AROCLOR 1254 (10%), Method: STANDARD PLATE); “active; positive” (Test System: E. COLI, Strain/Indicator: WP2 UVRA, Metabolic Activation: NONE, Method: STANDARD PLATE); “inactive; negative” (Test System: E. COLI, Strain/Indicator: WP2 UVRA, Metabolic Activation: RAT LIVER S-9, AROCLOR 1254 (10%), Method: STANDARD PLATE). Also, the mutagenic call by setting is: (Test System: MOUSE LYMPHOMA, Strain/Indicator: L5178Y(TK+/TK-), Metabolic Activation: NONE, Method: SUSPENSION/PLATE) “active; positive”; (Test System: MOUSE LYMPHOMA, Strain/Indicator: L5178Y(TK+/TK-), Metabolic Activation: RAT LIVER S-9, AROCLOR 1254 (25%), Method: SUSPENSION/PLATE) “inactive; negative”.
`O=Cc1ccccc1O`: the mutagenic call under setting [1] was “inactive; negative”; the mutagenic call under setting [3] was “inactive; negative”; the mutagenic call under setting [2] was “inactive; negative”; the mutagenic call (Test System: AMES SALMONELLA TYPHIMURIUM, Strain/Indicator: TA100, Metabolic Activation: S-9, Method: STANDARD PLATE) was “inactive; negative”.
As for `Clc1ccccc1-c1nc2ccccc2o1`, the mutagenic call by setting is: under setting [1], “inactive; negative”; under setting [3], “inactive; negative”.
For the molecule `Nc1c2ccccc2nc2ccc(I)cc12`, the mutagenic call (Test System: AMES SALMONELLA TYPHIMURIUM, Strain/Indicator: TA1537, Metabolic Activation: NONE, Method: PREINCUBATION) is “active; positive”.
